Measured values published in US20230203043A1, “NOVEL IMIDAZOPYRAZINE DERIVATIVES” (Hoffmann-La Roche Inc., priority 2020, published 2023).
Counter-ions that a name gives are not always drawn. Like-named read-outs stand apart in the source and are kept apart here.

System: Acinetobacter baumannii ATCC17961
Assay: Antimicrobial susceptibility testing: 90% growth inhibitory concentration (IC90) determination in Iso-Sensitest broth, OD600 growth
Type: cell-based
Method in brief: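 Each strain, at about 5×10^(5) CFU/ml, was incubated with twofold dilutions of compound at 35±2° C for 16 h, and IC90 was calculated from kinetic optical density measured at 600 nm during logarithmic growth.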

[1] = Acinetobacter baumannii, ATCC17961, 16 h, read-out: A. baumannii ATCC 17961 IC90 (uM), strain ATCC 17961, OD600 growth over 16 h
[2] = Acinetobacter baumannii, ATCC17961, 16 h, strain ATCC 17961, OD600 growth over 16 h, read-out: A. baumannii ATCC 17961 IC90
[3] = strain ATCC 17961, OD600 growth over 16 h, read-out: A. baumannii ATCC 17961 IC90

Compound | IC90 [2] | IC90 [1] | further results
Cc1cc(Nc2nccn3c(-c4cn(CC#N)nc4C(F)(F)F)cnc23)cc(F)c1C(=O)N1CCN(C(=O)CN)CC1 [Example 695, 2-(4-(8-((3-fluoro-4-(4-glycylpiperazine-1-carbonyl)-5-methylphenyl)amino)imidazo[1,2-a]pyrazin-3-yl)-3-(trifluoromethyl)-1H-pyrazol-1-yl) acetonitrile formate] | – | 0.362 µM | –
CCc1cc(Nc2nccn3c(-c4cn(CC(C)(CO)CCl)nc4C(F)(F)F)cnc23)ccc1C(=O)NCCOCCN (stereo not shown) [Example 279, N-[2-(2-aminoethoxy)ethyl]-4-[[3-[1-[2-(chloromethyl)-3-hydroxy-2-methylpropyl]-3-(trifluoromethyl)pyrazol-4-yl]imidazo[1,2-a]pyrazin-8-yl]amino]-2-ethylbenzamide formate] | – | 0.664 µM | –
CCc1cc(Nc2nccn3c(-c4cn(CC5CC5)nc4C(F)(F)F)cnc23)ccc1C(=O)NCCOCCN [Example 30, N-[2-(2-aminoethoxy)ethyl]-4-[[3-[1-(cyclopropylmethyl)-3-(trifluoromethyl)pyrazol-4-yl]imidazo[1,2-a]pyrazin-8-yl]amino]-2-ethylbenzmamide formate] | – | – | IC90 [3]: 0.159 µM
CCc1cc(Nc2nccn3c(-c4cn(CC(F)F)nc4C(F)(F)F)cnc23)ccc1C(=O)N1CC(N)C1 [Example 556, (3-aminoazetidin-1-yl)(4-((3-(1-(2,2-difluoroethyl)-3-(trifluoromethyl)-1H-pyrazol-4-yl)imidazo[1,2-a]pyrazin-8-yl)amino)-2-ethylphenyl)methanone formate] | – | 0.675 µM | –
N[C@H]1CN[C@H](C(=O)N2CCN(C(=O)c3ccc(Nc4nccn5c(-c6c[nH]nc6C(F)(F)F)cnc45)cc3Cl)CC2)C1 [Example 200, [4-[(2S,4R)-4-aminopyrrolidine-2-carbonyl]piperazin-1-yl]-[2-chloro-4-[[3-[3-(trifluoromethyl)-1H-pyrazol-4-yl]imidazo[1,2-a]pyrazin-8-yl]amino]phenyl] methanone formate] | – | 0.372 µM | –
Cc1cc(Nc2nccn3c(-c4cn(CC#N)nc4C(F)(F)F)cnc23)cc(F)c1C(=O)N1CCN(C(=O)C2CCNCC2)CC1 [Example 703, 2-(4-(8-((3-fluoro-5-methyl-4-(4-(piperidine-4-carbonyl)piperazine-1-carbonyl)phenyl)amino)imidazo[1,2-a]pyrazin-3-yl)-3-(trifluoromethyl)-1H-pyrazol-1-yl)acetonitrile formate] | – | 0.383 µM | –
CCc1cc(Nc2nccn3c(-c4cn(CC(F)F)nc4C(F)(F)F)cnc23)ccc1C(=O)NCC(=O)NCC1CCN1 (stereo not shown) [Example 530, N-[2-(azetidin-2-ylmethylamino)-2-oxo-ethyl]-4-[[3-[1-(2,2-difluoroethyl)-3-(trifluoromethyl)pyrazol-4-yl]imidazo[1,2-a]pyrazin-8-yl]amino]-2-ethyl-benzamide formate] | – | 0.327 µM | –
O=C(CN1CCN(C(=O)c2ccc(Nc3nccn4c(-c5cn(CC(F)F)nc5C(F)(F)F)cnc34)cc2Cl)CC1)N[C@H]1CCNC1 [Example 600, (S)-2-(4-(2-chloro-4-((3-(1-(2,2-difluoroethyl)-3-(trifluoromethyl)-1H-pyrazol-4-yl)imidazo[1,2-a]pyrazin-8-yl)amino)benzoyl)piperazin-1-yl)-N-(pyrrolidin-3-yl) acetamide formate] | 0.517 µM | – | –
N#CCn1cc(-c2cnc3c(Nc4ccc(C(=O)NCC(=O)N5CC[C@@H](N)C5)c(Cl)c4)nccn23)c(C(F)(F)F)n1 [Example 663, N-[2-[(3R)-3-aminopyrrolidin-1-yl]-2-oxo-ethyl]-2-chloro-4-[[3-[1-(cyanomethyl)-3-(trifluoromethyl)pyrazol-4-yl]imidazo[1,2-a]pyrazin-8-yl]amino]benzamide formate] | – | 0.285 µM | –
N#CCn1cc(-c2cnc3c(Nc4ccc(C(=O)N5CCNCC5)c(Cl)c4)nccn23)c(C(F)(F)F)n1 [Example 226, 2-[4-[8-[3-chloro-4-(piperazine-1-carbonyl)anilino]imidazo[1,2-a]pyrazin-3-yl]-3-(trifluoromethyl)pyrazol-1-yl]acetonitrile] | 0.088 µM | – | –
CCc1cc(Nc2nccn3c(-c4c[nH]nc4C(F)(F)F)cnc23)ccc1C(=O)NCCNC(=O)[C@@H](N)CCCCN [Example 221, N-[2-[[(2S)-2,6-diaminohexanoyl]amino]ethyl]-2-ethyl-4-[[3-[3-(trifluoromethyl)-1H-pyrazol-4-yl]imidazo[1,2-a]pyrazin-8-yl]amino]benzamide formate] | – | 0.922 µM | –
CCc1cc(Nc2nccn3c(-c4cn(CCOC)nc4C(F)(F)F)cnc23)ccc1C(=O)NCCOCCN [Example 34, N-[2-(2-aminoethoxy)ethyl]-2-ethyl-4-[[3-[1-(2-methoxyethyl)-3-(trifluoromethyl)pyrazol-4-yl]imidazo[1,2-a]pyrazin-8-yl]amino]benzamide formate] | – | 0.367 µM | –
Cc1cc(Cn2cc(-c3cnc4c(Nc5ccc(C(=O)N6CCNCC6)c(Cl)c5)nccn34)c(C(F)(F)F)n2)nn1C [Example 185, [2-chloro-4-[[3-[1-[(1,5-dimethylpyrazol-3-yl)methyl]-3-(trifluoromethyl)pyrazol-4-yl]imidazo[1,2-a]pyrazin-8-yl]amino]phenyl]-piperazin-1-ylmethanone formate] | – | 0.65 µM | –
NC1CN(C(=O)c2ccc(Nc3nccn4c(-c5c[nH]nc5C(F)(F)F)cnc34)cc2Cl)C1 [Example 167] | – | – | IC90 [3]: 0.485 µM
CCc1cc(Nc2nccn3c(-c4cn(CC#N)nc4C(F)(F)F)cnc23)ccc1C(=O)NCCOCCCN [Example 612, N-(2-(3-aminopropoxy)ethyl)-4-((3-(1-(cyanomethyl)-3-(trifluoromethyl)-1H-pyrazol-4-yl)imidazo[1,2-a]pyrazin-8-yl)amino)-2-ethylbenzamide formate] | – | 0.1 µM | –

The next lines start with results.

IC90 [2] | Compound | IC90 [1] | further results
0.16 µM | CCc1cc(Nc2nccn3c(-c4cn(CC#N)nc4C(F)(F)F)cnc23)ccc1C(=O)NCCNC(=O)[C@@H]1CCCN1 [Example 3, (2S)—N-[2-[[4-[[3-[1-(cyanomethyl)-3-(trifluoromethyl)pyrazol-4-yl]imidazo[1,2-a]pyrazin-8-yl]amino]-2-ethylbenzoyl]amino]ethyl]pyrrolidine-2-carboxamide] | – | –
2.36 µM | CCc1cc(Nc2nccn3c(-c4cn(COC)nc4C(F)F)cnc23)ccc1C(=O)N1CCN(C(=O)C2CC(O)CN2)CC1 (stereo not shown) [Example 798, (4-(4-((3-(3-(difluoromethyl)-1-(methoxymethyl)-1H-pyrazol-4-yl)imidazo[1,2-a]pyrazin-8-yl)amino)-2-ethylbenzoyl)piperazin-1-yl)(4-hydroxypyrrolidin-2-yl)methanone] | – | –
0.256 µM | CCOCCCNC(=O)c1ccc(Nc2nccn3c(-c4cn(CC#N)nc4C(F)(F)F)cnc23)cc1CC [Example 205, 4-[[3-[1-(cyanomethyl)-3-(trifluoromethyl)pyrazol-4-yl]imidazo[1,2-a]pyrazin-8-yl]amino]-N-(3-ethoxypropyl)-2-ethylbenzamide] | – | –
1.15 µM | CCc1cc(Nc2nccn3c(-c4cn(Cc5csc(C)n5)nc4C(F)(F)F)cnc23)ccc1C(=O)NCCCNCCCCNCCCN [Example 82, N-[3-[4-(3-aminopropylamino)butylamino]propyl]-2-ethyl-4-[[3-[1-[(2-methyl-1,3-thiazol-4-yl)methyl]-3-(trifluoromethyl)pyrazol-4-yl]imidazo[1,2-a]pyrazin-8 yl]amino]benzamide hydrochloride] | – | –
0.299 µM | CCc1cc(Nc2nccn3c(-c4c[nH]nc4C(F)(F)F)cnc23)ccc1C(=O)NCCCNC(=O)[C@H]1C[C@@H](N)C1 [Example 531, N-(3-((1s,3s)-3-aminocyclobutane-1-carboxamido)propyl)-2-ethyl-4-((3-(3-(trifluoromethyl)-1H-pyrazol-4-yl)imidazo [1,2-a]pyrazin-8-yl)amino)benzamide formate] | – | –
0.41 µM | CCc1cc(Nc2nccn3c(-c4cn(CC#N)nc4C(F)(F)F)cnc23)ccc1C(=O)N[C@H](C)CNC(=O)[C@@H]1C[C@@H](O)CN1 [Example 712, (2S,4R)-N-((R)-2-(4-((3-(1-(cyanomethyl)-3-(trifluoromethyl)-1H-pyrazol-4-yl)imidazo[1,2-a]pyrazin-8-yl)amino)-2-ethylbenzamido)propyl)-4-hydroxypyrrolidine-2-carboxamide] | – | –
0.209 µM | CCc1cc(Nc2nccn3c(-c4c[nH]nc4C(F)(F)F)cnc23)ccc1C(=O)NCCCNC(=O)N1CC[C@@H](N)C1 [Example 631, (R)-3-amino-N-(3-(2-ethyl-4-((3-(3-(trifluoromethyl)-1H-pyrazol-4-yl)imidazo[1,2-a]pyrazin-8-yl)amino)benzamido)propyl) pyrrolidine-1-carboxamide] | – | –
0.17 µM | CCc1cc(Nc2nccn3c(-c4cn(CC#N)nc4C(F)(F)F)cnc23)ccc1C(=O)NCCCCCCN [Example 227, N-(6-aminohexyl)-4-[[3-[1-(cyanomethyl)-3-(trifluoromethyl)pyrazol-4-yl]imidazo[1,2-a]pyrazin-8-yl]amino]-2-ethylbenzamide] | – | –
2.14 µM | CCc1cc(Nc2nccn3c(-c4c[nH]nc4C(F)F)cnc23)ccc1C(=O)NCCOCCN [Example 430, N-[2-(2-aminoethoxy)ethyl]-4-[[3-[3-(difluoromethyl)-1H-pyrazol-4-yl]imidazo[1,2-a]pyrazin-8-yl]amino]-2-ethylbenzamide] | – | –
0.2 µM | CCc1cc(Nc2nccn3c(-c4cn(CC(F)F)nc4C(F)(F)F)cnc23)ccc1C(=O)NCCNC(=O)[C@H]1CC[C@H](N)C1 [Example 492, N-(2-((1S,3S)-3-aminocyclopentane-1-carboxamido)ethyl)-4-((3-(1-(2,2-difluoroethyl)-3-(trifluoromethyl)-1H-pyrazol-4-yl)imidazo[1,2-a]pyrazin-8-yl)amino)-2-ethylbenzamide formate] | – | –
